Laboratory results as given in ChEMBL document CHEMBL1128696, “Hydroxylated aromatic inhibitors of HIV-1 integrase” (J Med Chem, 1995).

Target: Human immunodeficiency virus type 1 integrase (Human immunodeficiency virus 1, UniProt Q7ZJM1)
Experiment: In vitro inhibitory activity against HIV-1 integrase.

Sequence of Human immunodeficiency virus type 1 integrase (Q7ZJM1 whole entry): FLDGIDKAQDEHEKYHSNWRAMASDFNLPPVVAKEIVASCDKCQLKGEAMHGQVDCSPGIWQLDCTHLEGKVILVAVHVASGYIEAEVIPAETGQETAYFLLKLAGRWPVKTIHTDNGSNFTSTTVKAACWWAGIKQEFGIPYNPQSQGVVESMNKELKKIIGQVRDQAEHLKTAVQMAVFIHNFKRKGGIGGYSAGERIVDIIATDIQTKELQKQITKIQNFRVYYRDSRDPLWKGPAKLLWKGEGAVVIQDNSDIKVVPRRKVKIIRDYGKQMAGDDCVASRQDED

Compound | IC50 [µM]
O=C(/C=C/c1cc(O)ccc1O)OCCc1ccccc1 | > 100
COc1ccc(/C=C/C(=O)OCCc2ccccc2)cc1O | 60
O=C(OCCc1ccccc1)c1ccc2cc(O)c(O)cc2c1 | 68
O=C(/C=C/c1cc(O)c(O)c(O)c1)OCCc1ccccc1 | 2
O=C(/C=C/c1cc(O)c(O)cc1O)OCCc1ccccc1 | 55
O=C(CCc1ccc(O)c(O)c1)NCCc1cc(O)c(O)c(O)c1 | 4
O=C(/C=C/c1ccc(O)c(O)c1)OCCCc1ccccc1 | 8
O=C(CCc1ccc(O)c(O)c1)NCCc1ccccc1 | > 100
O=C(/C=C/c1ccc(O)c(O)c1O)OCCc1ccccc1 | 2
O=C(CCc1ccccc1)NCCc1ccc(O)c(O)c1 | > 100
O=C(OCCc1ccccc1)c1ccc2c(O)c(O)ccc2c1 | 18
N=c1oc2cc(O)c(O)cc2cc1C(N)=O | 48
O=C(/C=C/c1ccc(O)c(O)c1)OCCc1cccc2ccccc12 | 15
O=C(/C=C/c1ccc(O)c(O)c1)OCCc1ccc2ccccc2c1 | 44
COc1ccc(/C=C/C(=O)OCCc2ccccc2)cc1OC | > 100
COC(=O)c1cc2cc(O)c(O)cc2cn1 | > 100

Compound | IC50 [µM]
N=c1oc2c(O)c(O)ccc2cc1C(N)=O | 93
O=C(CCc1ccc(O)c(O)c1)OCCc1ccccc1 | 11
O=C(Cc1ccccc1)NCCc1ccc(O)c(O)c1 | > 100
O=C(CCc1ccc(O)c(O)c1)NCCc1ccc(O)c(O)c1 | 3
COC(=O)c1ccc2c(O)c(O)ccc2c1 | 8
N#C/C(=C\c1ccc(O)c(O)c1)C(N)=O | > 100
O=C(NCc1ccccc1)c1cc2cc(O)c(O)cc2cn1 | > 100
O=C(/C=C/c1ccc(F)c(F)c1)OCCc1ccccc1 | > 100
COC(=O)c1cc2ccc(O)c(O)c2cn1 | 14
COc1cc(/C=C/C(=O)OCCc2ccccc2)ccc1O | > 100
O=C(NCc1ccccc1)c1cc2ccc(O)c(O)c2cn1 | 75
O=C(NCCc1ccccc1)c1cc2ccc(O)c(O)c2cn1 | 40
O=C(/C=C/c1ccc(O)c(O)c1)OCc1ccccc1 [BENZYL CAFFEATE] | 9
O=C(/C=C/c1ccc(O)c(O)c1)OCCc1ccccc1 [CAFFEIC ACID PHENETHYL ESTER] | 7
CCOC(=O)/C=C/c1ccc(O)c(O)c1 [ETHYL CAFFEATE] | > 100
COC(=O)/C=C/c1ccc(O)c(O)c1 [METHYLCAFFEATE] | > 100
